The values below come from PubChem BioAssay AID179 (DTP/NCI, 2004).

The EC50 is the midpoint of the concentration-response curve. What is called IC50 is the midpoint of a concentration-inhibition curve. The low end stands for greater potency in that assay, the high end for weaker potency in that assay.

The subject of the assay is CEM cells HIV-1 protection, formazan growth assay. Put plainly: NCI AIDS Antiviral Assay. Conditions: for IC50: measured here: growth of uninfected CEM cells. An outline of the steps: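 Screen of anti-HIV-1 activity in human CEM cells using a formazan-based growth measurement at five drug concentrations. Hits with 50% or greater protection were repeated, and confirmation required reproducible complete protection.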

Activity calls are given as the source filed them.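 How the source made its calls: active means compounds giving half or more protection of infected cells from virus-caused growth loss, again on retest; inactive means the rest.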 Where a SMILES comes first, the peptide text is derived from it. [ ]: non-standard residue; d: D form. The star is where a group is joined. Hyp = O=C(O)[CH]1C[CH](O)CN1; Cbz = O=C(OCc1ccccc1)* Where only a bound is given, the exact number is not on record here.

As to `CC(=O)NC(CCCNC(=O)N(C)N=O)C(=O)NCc1ccccc1` (stereo unspecified), the EC50 was more than 708 µM and the IC50 is more than 708 µM.

Take `C/C(=N\N)C(CN(C)C)C(c1ccccc1)c1c(O)c2ccccc2oc1=O` (stereo unspecified): the EC50 was more than 87.1 µM and the half-maximal inhibitory concentration (IC50) is more than 87.1 µM.

Regarding `O=C1NCCS(=O)(=O)N2CCC[C@@H]12`, the EC50 was more than 1230 µM and the IC50 was more than 1230 µM.

As to `Cn1c(=Nc2ccc(Cl)cc2)sc2ccccc21`, the EC50 was more than 200 µM and the IC50 was 32.4 µM.

On to `O=C1CC(=O)N2C(=O)CC(=O)N12`, for which the EC50 is more than 537 µM and the IC50 is more than 537 µM.

Take `CC(C)(C)n1c(=O)n(-c2ccccc2)n(C(C)(C)C)c1=O`: the EC50 is more than 200 µM and the IC50 is more than 200 µM.

For the compound `N#Cc1c(-c2ccccc2)cc(-c2ccccc2)[nH]c1=O`, the EC50 is more than 36.3 µM and the IC50 is more than 36.3 µM.

`Cc1cn(C2CC(N(O)C3C4CC5CC(C4)CC3C5)C(CO)O2)c(=O)[nH]c1=O` (stereo unspecified): the EC50 is more than 200 µM and the IC50 was 120 µM.

For the compound `CCCc1cc(=O)oc2c3c(ccc12)OC(C)(C)[C@H](OC(=O)C12CCC(C)(C(=O)O1)C2(C)C)[C@@H]3OC(=O)C12CCC(C)(C(=O)O1)C2(C)C` (stereo partly specified), the EC50 is 0.891 µM and the IC50 was more than 200 µM.

`c1nc(SSc2ncnc3nc[nH]c23)c2[nH]cnc2n1`: the EC50 was more than 20 µM and the IC50 stood at 0.457 µM.

For `O=C(O)c1sccc1Cc1ccsc1`, the EC50 is more than 200 µM and the IC50 is more than 200 µM.

On to `COc1cc2c(cc1OCc1ccccc1)C=CN(C(=O)c1ccccc1)C2C#N` (stereo unspecified), for which the result was inactive.

With `N#Cc1c(N)[nH]c2ccc(Sc3ccccc3)cc12`, the EC50 was more than 70.8 µM and the IC50 turned out to be 0.0832 µM.

As for `Cc1cc2c(C)cc(=O)[nH]c2cc1N`, the EC50 was more than 200 µM and the IC50 is more than 200 µM.

With `O=C1CSC(=S)N1Cc1ccncc1`, the EC50 was more than 200 µM and the IC50 was determined as 4.27 µM.

Turning to `C=CCOC(=O)NC1C(OC(C)[C@@H](NC(=O)OCc2ccccc2)C(=O)OC(C)(C)C)OC(COC(C)=O)C(OC(C)=O)C1OC(C)=O` (stereo partly specified), the EC50 is more than 200 µM and the IC50 came to 28.8 µM.

Consider `CC1(C)OC(=C(C#N)C#N)C(C#N)=C1/C=C/c1ccncc1`, for which the EC50 was more than 151 µM and the IC50 is 0.813 µM.

Consider `O=C(CC1Sc2ccccc2NC1=O)Nc1cccc(Cl)c1` (stereo unspecified), for which the EC50 is more than 56.2 µM and the IC50 was more than 56.2 µM.

Regarding `N#Cc1sc2c(c1OC(=O)c1ccco1)c(=O)n(-c1ccccc1)c(=S)n2-c1ccccc1`, the EC50 was more than 200 µM and the IC50 is 12.3 µM.

For the compound `BrCCOc1ccc(-c2c3ccccc3c(-c3ccc(OCCBr)cc3)c3ccccc23)cc1`, the EC50 is more than 100 µM and the concentration for half-maximal inhibition (IC50) was more than 100 µM.

As to `Cc1c(O)c(OC2OC(CO)C(O)C(O)C2O)cc2c1CC[C@@H]1C2(C)C(=O)C[C@]2(C)[C@@H]([C@@](C)(O)C3CCC(C)(C)O3)[C@H](O)C[C@@]12C` (stereo partly specified), the EC50 was more than 200 µM and the concentration for half-maximal inhibition (IC50) was more than 200 µM.

For `O=C1c2cc(Cl)ccc2NC(=NCCCl)C2CSCN12` (stereo unspecified), the EC50 is more than 200 µM and the IC50 is more than 200 µM.

`COC(=O)CC1C(COC(C)=O)OC(n2cc(C)c(=O)[nH]c2=O)C1OC(C)=O` (stereo unspecified): the outcome was inactive.

Take `Cn1cc(NC(=O)Nc2cc(C(=O)Nc3cc(C(=O)Nc4ccc5cc(S(=O)(=O)O)cc(S(=O)(=O)O)c5c4)n(C)c3)n(C)c2)cc1C(=O)Nc1cc(C(=O)Nc2ccc3cc(S(=O)(=O)O)cc(S(=O)(=O)O)c3c2)n(C)c1`: the EC50 is 33.9 µM and the IC50 was more than 100 µM.

As to `C/C=C(/CCO)[Si](C)(C)C`, the outcome was inactive.

Take `Nc1cccc2cc(Cl)cnc12`: the EC50 was more than 200 µM and the IC50 is more than 200 µM.

Regarding `CNC(c1ccncc1)C(NC)c1ccncc1` (stereo unspecified), the EC50 was more than 200 µM and the IC50 was more than 200 µM.

Take `CN(C)c1cccc2c(S(=O)(=O)NCCN)cccc12`: the EC50 is more than 200 µM and the IC50 worked out at 174 µM.

On to `O=C(CCCN1CC=C(n2c(=O)[nH]c3ccccc32)CC1)c1cccs1`, for which the EC50 was more than 200 µM and the IC50 was 120 µM.

Turning to `CN(C)c1ccc(/C=C2\CC(C)(C)c3ccccc3C2=O)cc1`, the EC50 is more than 2 µM and the IC50 was determined as 0.363 µM.

Regarding `CCN(CC)C(=O)Cn1c2c(c3ccccc31)CCCC2`, the EC50 was more than 200 µM and the IC50 was determined as 138 µM.

`O=C1Oc2ccccc2CC1C(=O)c1ccc([N+](=O)[O-])cc1` (stereo unspecified): the EC50 was more than 63.1 µM and the IC50 turned out to be 52.5 µM.

On to `COc1ccc(S(=O)(=O)Cc2ccc(C(=O)O)cc2[N+](=O)[O-])cc1`, for which the EC50 was more than 708 µM and the IC50 was 646 µM.

As to `CC1(C)CC[C@]2(C)CC=C3[C@]4(C)CC[C@H]5C(C)(C)C(=O)CC[C@]5(C)[C@H]4CC[C@@]3(C)[C@H]2C1`, the EC50 is more than 50.1 µM and the IC50 was more than 50.1 µM.

In the case of `CCOC(=O)c1sc2c(c1OC(=O)c1ccco1)c(=O)n(-c1ccccc1)c(=S)n2-c1ccccc1`, the EC50 was more than 200 µM and the concentration for half-maximal inhibition (IC50) was 8.32 µM.

Consider `NC(=O)CNC(=O)C1CC(O)CN1C(=O)C1CCCN1C(=O)OCc1ccccc1` (stereo not drawn) (Cbz-Pro-[Hyp]-Gly-NH2; configuration not given here), for which the EC50 is more than 200 µM and the IC50 was more than 200 µM.

As to `O=C(Nc1ccn(C2CC(O)C(COC(c3ccccc3)(c3ccccc3)c3ccccc3)O2)c(=O)n1)c1ccccc1` (stereo unspecified), the EC50 was more than 200 µM and the IC50 was found to be 7.41 µM.

On to `Cc1ccnc(NS(=O)(=O)c2ccc(N=Nc3c(N)n(C)c(=O)n(C)c3=O)cc2)n1`, for which the outcome was inactive.

With `CC(=O)Nc1oc(C)c(C)c1S(=O)(=O)c1ccc(Cl)cc1`, the EC50 is more than 200 µM and the IC50 turned out to be 107 µM.

As for `O=C1OCSc2ccccc21`, the EC50 is more than 1070 µM and the IC50 was 178 µM.

Regarding `N#CC(C#N)=Cn1c(=S)[nH]c2ccc([N+](=O)[O-])cc21`, the EC50 was more than 200 µM and the IC50 is 89.1 µM.

For `CCC1=NC(C(F)(F)F)(C(F)(F)F)N=C(/N=C(/N)N(C)C(C(C)C)P(=O)(OC(C)C)OC(C)C)O1` (stereo unspecified), the EC50 is more than 200 µM and the IC50 is more than 200 µM.

For the compound `CCC(C)(C)NS(=O)(=O)c1ccccc1`, the outcome was inactive.

With `Cc1ccccc1C1(O)c2ccccc2Oc2ccccc21`, the concentration for a half-maximal effect (EC50) is more than 200 µM and the IC50 was 13.8 µM.

With `N#CC(C#N)=CN1CCNC1=S`, the EC50 is more than 200 µM and the IC50 was more than 200 µM.

For `O=C1NC23C4C5C6C4C2(N1)C6C53` (stereo unspecified), the EC50 was more than 1550 µM and the half-inhibitory concentration (IC50) was determined as 891 µM.

Take `N#Cc1nc(N)c(C#N)[nH]1`: the outcome was inactive.

Turning to `CCOC(=O)/C=C(/OCC)[C@@H]1C(C(=O)c2ccc(Cl)cc2)[C@H]1/C(=C\C(=O)OCC)OCC` (stereo partly specified), the EC50 was more than 200 µM and the IC50 came out at 17.4 µM.

Take `COc1ccc(C2Oc3ccc(Cl)cc3C=C2[N+](=O)[O-])cc1OC` (stereo unspecified): the EC50 was more than 2 µM and the IC50 turned out to be 0.724 µM.

For `CCCN1CN(C(C(=O)N[C@@H]2C(=O)N3C2SC(C)(C)C3C(=O)O)c2ccccc2)CSC1=S` (stereo partly specified), the EC50 was more than 257 µM and the IC50 stood at 148 µM.

With `N#Cc1sc2c(c1OC(=O)c1ccc(Cl)cc1)c(=O)n(-c1ccccc1)c(=S)n2-c1ccccc1`, the EC50 was more than 200 µM and the IC50 came to 1.2 µM.

For the compound `O=C1OC2OC3OC(=O)C4C3CC2C14` (stereo unspecified), the EC50 is more than 257 µM and the half-maximal inhibitory concentration (IC50) is more than 257 µM.

On to `COc1ccc(-c2cc(=O)c3ccccc3o2)c(OC)c1OC`, for which the EC50 is more than 200 µM and the IC50 amounted to 31.6 µM.

Turning to `CC1N(O)C(c2ccccc2)C(c2ccccc2)=[N+]1[O-]` (stereo unspecified), the EC50 is more than 200 µM and the IC50 is more than 200 µM.

For `CC(C)/C=C/c1cc(/C=C/C(=O)c2cc(/C=C/C(C)C)c(O)cc2O)ccc1O`, the outcome was inactive.

For `N=C1N(/N=C/c2ccccn2)C(=Nc2ccccc2)C(=S)N1c1ccccc1`, the EC50 is more than 200 µM and the IC50 amounted to 5.13 µM.

With `Nc1nnc(N)n1-n1c(N)nnc1N`, the EC50 was more than 200 µM and the IC50 is 166 µM.

As to `CC(=O)C1C(c2ccccc2)C2(C)OC(=O)C(C#N)C12C` (stereo unspecified), the outcome was inactive.

Regarding `Cn1c2c(c3ccccc31)CCN(CCN1CCN(c3ccccc3)CC1)C2=O`, the outcome was inactive.

On to `COC(=O)C1=C(c2ccc3c(c2)OCO3)OC(c2ccc3c(c2)OCO3)C1` (stereo unspecified), for which the result was inactive.

For the compound `CCCCCC/C=C\CCCCCCCCCc1c(O)c(OC)cc(O)c1CN(C)C`, the EC50 is more than 200 µM and the IC50 was 2.4 µM.

With `CS(=O)(=O)c1ccc(SSc2ccc(S(C)(=O)=O)cc2[N+](=O)[O-])c([N+](=O)[O-])c1`, the outcome was inactive.

Take `O=C(Nc1ccc(/C=C/c2ccc(NC(=O)c3ccc(N=Nc4cc(S(=O)(=O)O)c5cccnc5c4O)cc3)cc2S(=O)(=O)O)c(S(=O)(=O)O)c1)c1ccc(N=Nc2cc(S(=O)(=O)O)c3cccnc3c2O)cc1`: the EC50 is 17.8 µM and the IC50 is more than 100 µM.

Take `CC(=O)NC1C(O)OC(CO)C(OC2OC(CO)C(O)C(O)C2NC(=O)NCCCCCCNC(=O)n2cc(F)c(=O)[nH]c2=O)C1O` (stereo unspecified): the outcome was inactive.

For `Nc1nc2nc3c(nc2c(=O)[nH]1)CN(C1CCCCC1)C3=O`, the EC50 was more than 74.1 µM and the IC50 was more than 74.1 µM.

For the compound `CC1(C)OCC(C2OC(OC(=O)c3ccc([N+](=O)[O-])cc3)C3OC(C)(C)OC23)O1` (stereo unspecified), the result was inactive.

On to `CC1C=CC(O)[C@]2(CO)CC3(CCC12)OCCO3` (stereo partly specified), for which the result was inactive.

Regarding `O=C(Nc1cc(C(=O)Nc2cccc(S(=O)(=O)O)c2)cc(C(=O)Nc2cccc(S(=O)(=O)O)c2)c1)c1cccc(C(=O)Nc2cc(C(=O)Nc3cccc(S(=O)(=O)O)c3)cc(C(=O)Nc3cccc(S(=O)(=O)O)c3)c2)c1`, the EC50 was 97.7 µM and the half-inhibitory concentration (IC50) was more than 100 µM.

As to `CN(C)C(=S)/N=c1\ss/c(=N\C(=S)N(C)C)n1-c1ccccc1`, the EC50 is more than 200 µM and the IC50 stood at 191 µM.

Consider `CC1(C)OC(=O)C(=Cc2cccc(F)c2)C(=O)O1`, for which the EC50 is more than 525 µM and the IC50 is more than 525 µM.
